Bridge positions count the residues as written; N and C are the ends. Ends that are not written are not given here.
Key:
purified pro-FSAP = conditions: heparin ref 13, 14; nucleic acids ref 15, 16; dextran sulfate ref 13; cited from earlier work
Source text: This leads to cleavag ...

[1] = target: T1, pro-FSAP purified from human plasma (Homo sapiens, UniProt Q14520); assay: Pro-FSAP activation assay, purified pro-FSAP, chromogenic substrate S-2288; assay type: biochemical
T1 construct: Pro-FSAP was isolated from human plasma as described before; from tissue; host or cells: human plasma
T1 sequence (Q14520 24-560): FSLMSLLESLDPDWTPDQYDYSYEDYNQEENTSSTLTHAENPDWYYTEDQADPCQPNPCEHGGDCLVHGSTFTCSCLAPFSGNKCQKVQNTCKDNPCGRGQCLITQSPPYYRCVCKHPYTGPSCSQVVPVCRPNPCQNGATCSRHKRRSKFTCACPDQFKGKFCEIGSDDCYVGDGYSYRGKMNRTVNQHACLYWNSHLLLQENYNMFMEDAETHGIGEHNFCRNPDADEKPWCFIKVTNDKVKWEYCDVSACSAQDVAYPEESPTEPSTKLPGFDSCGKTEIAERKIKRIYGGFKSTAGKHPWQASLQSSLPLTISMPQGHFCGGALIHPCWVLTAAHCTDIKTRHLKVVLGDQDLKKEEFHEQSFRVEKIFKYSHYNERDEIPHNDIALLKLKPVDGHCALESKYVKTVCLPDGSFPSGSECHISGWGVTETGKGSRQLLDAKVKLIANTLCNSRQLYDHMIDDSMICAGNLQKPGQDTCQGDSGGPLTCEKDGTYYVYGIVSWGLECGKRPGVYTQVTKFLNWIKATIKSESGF
Method: Figure 1 Isolation of pro-FSAP binding peptides and their activity: (A) strategy to isolate high-affinity phages from the NNKC9 and NNK11 libraries that bind to pro-FSAP. To select for strong binders, an excess of free pro-FSAP protein was used for competitive elution of low-affinity binders. High-affinity binders retained on the beads were analyzed further. The sequences of major positive clones identified through an ELISA-based binding assay from the NNKC9 and NNK11 libraries are shown. (B) NNK11/189 and scrambled controls (0–50 μM) and histones (0–50 μg/mL) were added to purified pro-FSAP (1.0 μg/mL) and the turnover of the chromogenic substrate S-2288 (200 μM) was measured. (C) NNKC9/41 was compared to a peptide that was synthetically monocyclized (Cys–Cys cyclic), a peptide with Ser residues instead of Cys at both ends (Ser–Ser linear), a peptide with Ser residues at the end cyclized head to tail (Ser–Ser cyclic), and a scrambled peptide in a pro-FSAP activation assay. (D) Hirudin plasma (1:12 dilution) was incubated with histones (25 μg/mL), NNKC9/41, or Ser–Ser linear control (each, 25 μM), the fluorogenic substrate turnover (Ac–Ala–Lys–Nle–Arg–AMC) was monitored in duplicate wells, and results from a single well are shown. In panels (B) and (C), results are shown as mean + range (duplicate wells). Results were replicated with five different batches of NNKC9/41 (panels (B) and (C)).
Pro-FSAP was isolated from human plasma as described before.[14] The content of the zymogen form varied from 50% to 90% due to autoactivation during the purification process. Histones, isolated from the calf thymus, were obtained from Sigma-Aldrich (Oslo, Norway). FSAP activity assays were performed as described previously.[51] In brief, microtiter wells were blocked with TBS (25 mM Tris–HCl, pH 7.5, and 150 mM NaCl) containing 3% (w/v) BSA for 1 h and washed with TBS-T. The standard assay consisted of TBS-T with 0.3% (w/v) BSA and CaCl2 (2 mM) 1 μg/mL (15 nM) plasma purified pro-FSAP and 250 μM chromogenic substrate S-2288 (D-Ile-L-Pro-L-Arg-p-nitroaniline dihydrochloride) (Haemochrome Diagnostica, Essen, Germany) and was followed at 37 °C at 405 nm in a microplate reader Synergy HI plate reader (BioTek Instruments, Winooski). In some experiments, a fluorescent substrate of FSAP[35] was used.

pro-FSAP in human plasma [2] = target: T2, pro-FSAP in human plasma (Homo sapiens, UniProt Q14520); assay: Activation of endogenous pro-FSAP in plasma, fluorogenic substrate turnover; assay type: biochemical
T2 construct: from tissue; host or cells: human hirudin or citrate plasma from healthy donors, diluted 1:12
T2 sequence (Q14520 24-560): as above
Method: Human citrate plasma (0.38% w/v) or hirudin plasma (25 μg/mL Lepirudin) was obtained from five healthy donors. Plasma was diluted at 1:12 and mixed with various test substances that potentially activate or inhibit pro-FSAP. Ac–Ala–Lys–Nle–Arg–AMC (amino–methyl–coumarin) was used as a sensitive and specific substrate for FSAP.[35] Hydrolysis of the fluorogenic substrates was measured using a Synergy HI plate reader with excitation at 320 nm and emission at 460 nm at 37 °C for 60 min. The maximal velocity was calculated from the linear part of the progress curve. In limited experiments, the second-generation fluorogenic FSAP substrate (Ac–Pro–DTyr–Lys–Arg–AMC)[34] was used. Pro-uPA activation, formation of FSAP−α2-antiplasmin, and western blotting with anti-FSAP antibodies were also used to monitor pro-FSAP activation.

pro-FSAP in human plasma [3] = target: T2, pro-FSAP in human plasma; conditions: NNKC9/41; cited from earlier work
Source text: The contact pathway of blood coagulation is activated by negatively charged surfaces,[44] and we also tested whether it was involved in any way in the pro-FSAP activation process. […] The kallikrein inhibitor PKS1-527 had no effect,[43] but aprotinin, a general serine protease inhibitor, blocked pro-FSAP activation/activ ...

EGF3 domain of FSAP = conditions: cited from earlier work
Source text: To identify the domain of FSAP responsible for binding to NNKC9/41, we expressed various domain deletion mutants of pro-FSAP as His-tagged proteins in E. coli as described before.[36] The N-terminus of pro- FSAP (heavy chain) consists of the intrinsically disordered N-terminal region (NTR), three EGF domains, and a kringle domain, whereas the C-terminal-light chain contains the serine protease domain (SPD) (Figure 2C). […] The recombinant proteins (Figure 2D) were captured on polyclonal FSAP an ...

[4] = hirudin plasma, Ac–Pro–DTyr–Lys–Arg–AMC (Fig S3)

dextran sulfate
activation of purified pro-FSAP (purified pro-FSAP): activate purified pro-FSAP

IDCLMQNAGSA [NNK11/189]
effect on pro-FSAP activation ([1]; purified pro-FSAP 1.0 μg/mL, peptides 0–50 μM, histones 0–50 μg/mL, S-2288 (200 μM in legend b10, 250 μM in method b60), 37 °C, 405 nm, duplicate wells): did not have any effect on pro-FSAP activation

aprotinin [reference compound]
effect of inhibitor on pro-FSAP activation by the peptide (pro-FSAP in human plasma [2]; hirudin plasma 1:12, NNKC9/41 25 μM, CTI 80 μg/mL, aprotinin 100 μg/mL, MA-570 20 μg/mL, read-outs of Fig 4D–F (MA-FSAP-570 only Fig 4D,E)): blocked pro-FSAP activation/activity

CRGAMWMYKRC (disulfide 1-11 (inferred)) [cyclic dimer, antiparallel cyclic dimer of NNKC9/41 through terminal Cys groups]
presence in HPLC fractions active in pro-FSAP activation (pro-FSAP in human plasma [2]; RP-HPLC fractions of NNKC9/41 tested in hirudin plasma, LC–MS (Fig S1)): found in all of the active fractions | activity at higher concentrations (pro-FSAP in human plasma [2]; [4]): pronounced decrease in activity at higher concentrations | maximal activity vs NNKC9/41 (pro-FSAP in human plasma [2]; [4]): slightly lower

Cl.NCC1CCC(C(=O)N[C@@H](Cc2ccccc2)C(=O)Nc2ccc(CC(=O)O)cc2)CC1 (stereo partly shown) [PKS1-527]
effect of kallikrein inhibitor (pro-FSAP in human plasma [3]): had no effect

heparin
binding to the EGF3 domain (EGF3 domain of FSAP): binds to the EGF3 domain | activation of purified pro-FSAP (purified pro-FSAP): activate purified pro-FSAP

CRGAMWMYKRC (not fully specified (N-terminus); also: oxidation gives mixture of Cys1-Cys11 monocycle and disulfide-linked antiparallel dimers) [NNKC9/41]
EC50 ([1]; purified pro-FSAP activation, S-2288, linear synthetic peptide stored under oxidative conditions, five batches): 8 to 15 µM

— article PMC9486805, “Identification of a Phage Display-Derived Peptide Interacting with the N-Terminal Region of Factor VII Activating Protease (FSAP) Enables Characterization of Zymogen Activation” (ACS Chemical Biology, 2022)
